Data set [1] deals with T1, SARS-CoV-2 E protein (2-E) (Severe acute respiratory syndrome coronavirus 2, UniProt P0DTC4). Description: cell-based. Format: biochemical.
A further data set has as its system SARS-CoV E protein (1-E). The following applies: 1-E protein, cell viability assay; read-out: IC50, inhibition data from published 1-E protein; cited from earlier work.
In data set [2] the target is T1, SARS-CoV-2 E protein (2-E). The experiment in a line: cell-based.
The next data set concerns SARS-CoV-2. Particulars: in vitro, Vero-h/SLAM cells; cited from earlier work.
Where [3] appears, read: read-out: IC50, patch-clamp electrophysiology, 2-E.
Where [4] appears, read: read-out: IC50, cell viability assay, 2-E protein.

Read-outs that look alike come from different tables or passages of the source. Where only a bound is given, the exact number is not on record here.

T1 sequence (P0DTC4 whole entry): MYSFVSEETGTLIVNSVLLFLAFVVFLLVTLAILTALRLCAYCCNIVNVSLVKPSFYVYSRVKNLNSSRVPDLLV

The term IC50 denotes the point on the concentration scale where inhibition reaches its midpoint. With `NC(N)=NC(=O)c1nc(Cl)c(N2CCCCCC2)nc1N` [HMA, 5-(N,N-hexamethylene)amiloride], the figures for the IC50 (in data set [1] (setting [3]); with SARS-CoV E protein (1-E); in data set [2] (setting [4])) were 1.9 ± 0.3 nM, 2.6 ± 0.4 µM and 1.5 ± 0.3 µM, respectively. The “Concentration with cytotoxic effects / onset of cell toxicity” value with HEK293 cells is on record as above 10 µM.
As for `CCC(C)C1OC2(CCC1C)CC1CC(CC=C(C)C(O)C(C)C=CC=C3COC4C(O)C(C)=CC(C(=O)O1)C34O)O2` (stereo not drawn) [ivermectin aglycon], the IC50 in data set [1] (setting [3]) came out at 5 ± 1.3 nM.
For `CC1=C[C@H]2C(=O)O[C@H]3C[C@@H](C/C=C(\C)C[C@@H](C)/C=C/C=C4\CO[C@H]([C@@H]1O)[C@@]42O)O[C@]1(C3)C[C@H](O)[C@H](C)[C@@H](/C(C)=C/C(C)C)O1` [nemadectin], the “IC50, patch-clamp electrophysiology, 2-E” value in data set [1] is recorded as “not active”. Besides, the “Inhibition of 2-E protein-mediated currents” value in data set [1] (any of the tested concentrations) is given as “did not observe inhibition”. Moreover, in the data set with HEK293 cells (human), the “Concentration with cytotoxic effects / onset of cell toxicity” value is given as 2 µM.
Turning to ivermectin, the “Reduction in SARS-CoV-2 viral RNA” value in the data set on SARS-CoV-2 is reported as 5000 fold. In data set [1] (setting [3]), the IC50 was 0.88 ± 0.1 nM. Also, the “Inhibition of the 2-E protein in the cell viability assay” value in data set [2] is on record as “showed inhibiting effects”.
On to `CC1=C[C@H]2C(=O)O[C@H]3C[C@@H](C/C=C(\C)C[C@@H](C)/C=C/C=C4\CO[C@H]([C@@H]1O)[C@@]42O)O[C@@]1(CC[C@H](C)[C@@H](C)O1)C3` [milbemycin], for which, in data set [1], the half-inhibitory concentration (IC50) came out at 2.21 ± 0.65 nM. In addition, in the data set on HEK293 cells (human), the “Concentration with cytotoxic effects / onset of cell toxicity” value is ~ 10 µM.
On to `CC(N)C12CC3CC(CC(C3)C1)C2` (stereo not drawn) [rimantadine], for which the IC50 in data set [1] is 3.6 ± 0.6 nM; in the data set on SARS-CoV E protein (1-E), 10.9 ± 3.3 µM; in data set [2], 8.9 ± 2.2 µM. In addition, the “Concentration with cytotoxic effects / onset of cell toxicity” value with HEK293 cells is recorded as “not cytotoxic”.
As for `NC12CC3CC(CC(C3)C1)C2` [amantadine], the IC50 in data set [1] (setting [3]) was 24.1 ± 6.5 nM; in the data set with SARS-CoV E protein (1-E), 77 ± 13 µM; in data set [2] (setting [4]), 89 ± 27 µM. In addition, the “Concentration with cytotoxic effects / onset of cell toxicity” value in the data set with HEK293 cells is reported as “not cytotoxic”.
